According to the kinase profiling compilation of Christmann-Franck et al. (2016):

What was measured:
Assay in all cases: KINOMEscan competition binding
Conditions in all cases: compound 10.0 µM
ACVRL1 (human) = ACVRL1 (human) (UniProt P37023)
ADCK3 (human) = ADCK3 (human) (UniProt Q8NI60)
AURKB (human) = AURKB (human) (UniProt Q96GD4)
BMPR1B (human) = BMPR1B (human) (UniProt O00238)
BMX (human) = BMX (human) (UniProt P51813)
CAMK1D (human) = CAMK1D (human) (UniProt Q8IU85)
CDC2L2 (human) = CDC2L2 (human) (UniProt Q9UQ88)
CDK11B (human) = CDK11B (human) (UniProt P21127)
EIF2AK2 (human) = EIF2AK2 (human) (UniProt P19525)
EPHA6 (human) = EPHA6 (human) (UniProt Q9UF33)
FES (human) = FES (human) (UniProt P07332)
[1] = system: FLT3 (human), P36888 [ITD]
HIPK4 (human) = HIPK4 (human) (UniProt Q8NE63)
KDR (human) = KDR (human) (UniProt P35968)
KIT (human) = KIT (human) (UniProt P10721)
LIMK1 (human) = LIMK1 (human) (UniProt P53667)
MAP2K1 (human) = MAP2K1 (human) (UniProt Q02750)
MAP3K1 (human) = MAP3K1 (human) (UniProt Q13233)
MAP3K12 (human) = MAP3K12 (human) (UniProt Q12852)
MAP3K5 (human) = MAP3K5 (human) (UniProt Q99683)
MAP3K9 (human) = MAP3K9 (human) (UniProt P80192)
MAP4K1 (human) = MAP4K1 (human) (UniProt Q92918)
MAP4K3 (human) = MAP4K3 (human) (UniProt Q8IVH8)
MAPK15 (human) = MAPK15 (human) (UniProt Q8TD08)
MAPKAPK2 (human) = MAPKAPK2 (human) (UniProt P49137)
NEK9 (human) = NEK9 (human) (UniProt Q8TD19)
[2] = system: PIK3CA (human), P42336 [C420R]
PRKCH (human) = PRKCH (human) (UniProt P24723)
PRKD1 (human) = PRKD1 (human) (UniProt Q15139)
PRKD2 (human) = PRKD2 (human) (UniProt Q9BZL6)
PTK2B (human) = PTK2B (human) (UniProt Q14289)
RIOK2 (human) = RIOK2 (human) (UniProt Q9BVS4)
ROCK2 (human) = ROCK2 (human) (UniProt O75116)
RPS6KA2 KD1 (human) = RPS6KA2 KD1 (human) (UniProt Q15349)
STK25 (human) = STK25 (human) (UniProt O00506)
STK4 (human) = STK4 (human) (UniProt Q13043)
TAOK3 (human) = TAOK3 (human) (UniProt Q9H2K8)
TNK1 (human) = TNK1 (human) (UniProt Q13470)
TNNI3K (human) = TNNI3K (human) (UniProt Q59H18)
[3] = target: TYK2 JH2 pseudokinase (human) (UniProt P29597)
TYRO3 (human) = TYRO3 (human) (UniProt Q06418)
Chain of TYRO3 (human) (Q06418 whole entry, looked up): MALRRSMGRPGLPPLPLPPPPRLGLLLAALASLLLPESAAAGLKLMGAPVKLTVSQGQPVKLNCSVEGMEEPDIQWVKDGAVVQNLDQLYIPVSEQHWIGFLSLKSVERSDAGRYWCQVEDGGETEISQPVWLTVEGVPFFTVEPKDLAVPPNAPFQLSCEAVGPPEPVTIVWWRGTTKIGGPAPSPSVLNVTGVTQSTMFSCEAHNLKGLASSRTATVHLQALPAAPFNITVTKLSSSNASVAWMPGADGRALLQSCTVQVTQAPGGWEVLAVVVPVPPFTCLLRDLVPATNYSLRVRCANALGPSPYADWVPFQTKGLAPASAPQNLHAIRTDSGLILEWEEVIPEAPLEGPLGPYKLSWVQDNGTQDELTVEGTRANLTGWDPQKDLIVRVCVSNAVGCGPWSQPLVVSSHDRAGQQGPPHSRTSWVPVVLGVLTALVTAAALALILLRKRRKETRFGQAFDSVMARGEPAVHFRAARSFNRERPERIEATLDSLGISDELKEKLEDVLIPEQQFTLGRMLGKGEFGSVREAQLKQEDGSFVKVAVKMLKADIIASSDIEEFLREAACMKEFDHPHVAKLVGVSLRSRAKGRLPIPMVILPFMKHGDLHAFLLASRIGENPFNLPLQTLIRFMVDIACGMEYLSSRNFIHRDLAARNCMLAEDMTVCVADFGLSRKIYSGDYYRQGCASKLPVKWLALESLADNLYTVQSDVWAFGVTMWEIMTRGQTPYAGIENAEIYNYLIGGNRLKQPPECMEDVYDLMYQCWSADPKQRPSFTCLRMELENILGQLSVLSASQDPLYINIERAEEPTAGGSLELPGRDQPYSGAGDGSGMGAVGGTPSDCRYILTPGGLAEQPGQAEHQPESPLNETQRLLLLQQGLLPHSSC

Chain of PRKCH (human) (P24723 whole entry, looked up): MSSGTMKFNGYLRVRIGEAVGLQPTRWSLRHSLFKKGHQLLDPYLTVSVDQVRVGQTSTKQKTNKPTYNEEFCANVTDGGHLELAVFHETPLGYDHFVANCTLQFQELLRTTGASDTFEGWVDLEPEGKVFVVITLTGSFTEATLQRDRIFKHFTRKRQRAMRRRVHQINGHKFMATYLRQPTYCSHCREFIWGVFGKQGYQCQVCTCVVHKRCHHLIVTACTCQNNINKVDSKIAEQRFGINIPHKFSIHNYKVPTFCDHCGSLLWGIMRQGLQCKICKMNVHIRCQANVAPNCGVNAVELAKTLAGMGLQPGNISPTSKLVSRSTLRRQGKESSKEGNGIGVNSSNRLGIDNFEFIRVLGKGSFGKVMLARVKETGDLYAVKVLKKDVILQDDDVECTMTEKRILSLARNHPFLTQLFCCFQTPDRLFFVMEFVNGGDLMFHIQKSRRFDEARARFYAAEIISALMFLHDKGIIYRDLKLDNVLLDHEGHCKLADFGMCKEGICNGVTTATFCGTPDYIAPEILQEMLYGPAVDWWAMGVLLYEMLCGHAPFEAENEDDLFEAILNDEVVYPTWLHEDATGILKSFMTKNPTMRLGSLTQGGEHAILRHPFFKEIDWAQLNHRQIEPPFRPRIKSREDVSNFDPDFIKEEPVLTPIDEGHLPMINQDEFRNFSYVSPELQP
Chain of KIT (human) (P10721 whole entry, looked up): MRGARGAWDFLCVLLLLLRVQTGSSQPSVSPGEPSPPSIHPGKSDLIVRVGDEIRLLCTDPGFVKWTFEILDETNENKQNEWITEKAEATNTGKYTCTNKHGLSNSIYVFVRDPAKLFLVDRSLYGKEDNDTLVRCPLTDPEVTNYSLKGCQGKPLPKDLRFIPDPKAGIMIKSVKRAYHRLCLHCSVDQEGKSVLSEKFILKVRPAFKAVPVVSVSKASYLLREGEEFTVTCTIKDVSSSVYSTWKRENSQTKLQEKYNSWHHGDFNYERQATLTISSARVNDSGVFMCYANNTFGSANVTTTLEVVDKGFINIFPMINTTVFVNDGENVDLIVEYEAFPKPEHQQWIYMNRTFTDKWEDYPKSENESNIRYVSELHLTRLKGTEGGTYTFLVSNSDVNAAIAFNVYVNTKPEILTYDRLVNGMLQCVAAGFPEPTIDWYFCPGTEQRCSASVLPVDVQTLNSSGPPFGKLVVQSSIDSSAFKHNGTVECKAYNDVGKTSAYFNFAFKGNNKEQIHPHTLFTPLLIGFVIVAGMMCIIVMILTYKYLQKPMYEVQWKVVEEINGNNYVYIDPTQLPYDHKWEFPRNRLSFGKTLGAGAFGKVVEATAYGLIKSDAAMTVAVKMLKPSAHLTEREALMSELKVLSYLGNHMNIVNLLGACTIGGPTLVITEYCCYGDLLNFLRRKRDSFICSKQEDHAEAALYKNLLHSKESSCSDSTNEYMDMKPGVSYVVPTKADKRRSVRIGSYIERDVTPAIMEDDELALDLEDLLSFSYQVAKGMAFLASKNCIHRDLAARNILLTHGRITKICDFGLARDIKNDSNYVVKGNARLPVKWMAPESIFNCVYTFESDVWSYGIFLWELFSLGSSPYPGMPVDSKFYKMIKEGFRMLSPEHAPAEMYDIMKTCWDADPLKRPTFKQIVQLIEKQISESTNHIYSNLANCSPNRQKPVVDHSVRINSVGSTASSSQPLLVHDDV
Chain of BMX (human) (P51813 whole entry, looked up): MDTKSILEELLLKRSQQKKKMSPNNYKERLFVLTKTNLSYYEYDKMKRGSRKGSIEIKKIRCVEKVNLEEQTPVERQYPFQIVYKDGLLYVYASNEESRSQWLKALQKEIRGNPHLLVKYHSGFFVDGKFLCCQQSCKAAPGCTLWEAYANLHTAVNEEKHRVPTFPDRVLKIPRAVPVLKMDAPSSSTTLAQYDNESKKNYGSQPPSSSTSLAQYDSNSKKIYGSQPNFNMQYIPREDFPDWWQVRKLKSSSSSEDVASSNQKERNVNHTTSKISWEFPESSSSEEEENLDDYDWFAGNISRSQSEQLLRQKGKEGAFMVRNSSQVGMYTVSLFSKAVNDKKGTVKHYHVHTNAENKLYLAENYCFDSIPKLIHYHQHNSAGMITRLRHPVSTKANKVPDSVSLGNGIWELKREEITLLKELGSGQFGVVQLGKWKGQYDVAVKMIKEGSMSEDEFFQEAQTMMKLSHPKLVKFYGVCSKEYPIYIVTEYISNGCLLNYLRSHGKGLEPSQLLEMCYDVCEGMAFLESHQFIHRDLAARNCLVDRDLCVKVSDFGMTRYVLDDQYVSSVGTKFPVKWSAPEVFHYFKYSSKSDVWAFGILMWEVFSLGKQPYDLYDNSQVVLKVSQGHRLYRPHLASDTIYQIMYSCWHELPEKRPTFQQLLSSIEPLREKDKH
Chain of TYK2 JH2 pseudokinase (human) (P29597 whole entry, looked up): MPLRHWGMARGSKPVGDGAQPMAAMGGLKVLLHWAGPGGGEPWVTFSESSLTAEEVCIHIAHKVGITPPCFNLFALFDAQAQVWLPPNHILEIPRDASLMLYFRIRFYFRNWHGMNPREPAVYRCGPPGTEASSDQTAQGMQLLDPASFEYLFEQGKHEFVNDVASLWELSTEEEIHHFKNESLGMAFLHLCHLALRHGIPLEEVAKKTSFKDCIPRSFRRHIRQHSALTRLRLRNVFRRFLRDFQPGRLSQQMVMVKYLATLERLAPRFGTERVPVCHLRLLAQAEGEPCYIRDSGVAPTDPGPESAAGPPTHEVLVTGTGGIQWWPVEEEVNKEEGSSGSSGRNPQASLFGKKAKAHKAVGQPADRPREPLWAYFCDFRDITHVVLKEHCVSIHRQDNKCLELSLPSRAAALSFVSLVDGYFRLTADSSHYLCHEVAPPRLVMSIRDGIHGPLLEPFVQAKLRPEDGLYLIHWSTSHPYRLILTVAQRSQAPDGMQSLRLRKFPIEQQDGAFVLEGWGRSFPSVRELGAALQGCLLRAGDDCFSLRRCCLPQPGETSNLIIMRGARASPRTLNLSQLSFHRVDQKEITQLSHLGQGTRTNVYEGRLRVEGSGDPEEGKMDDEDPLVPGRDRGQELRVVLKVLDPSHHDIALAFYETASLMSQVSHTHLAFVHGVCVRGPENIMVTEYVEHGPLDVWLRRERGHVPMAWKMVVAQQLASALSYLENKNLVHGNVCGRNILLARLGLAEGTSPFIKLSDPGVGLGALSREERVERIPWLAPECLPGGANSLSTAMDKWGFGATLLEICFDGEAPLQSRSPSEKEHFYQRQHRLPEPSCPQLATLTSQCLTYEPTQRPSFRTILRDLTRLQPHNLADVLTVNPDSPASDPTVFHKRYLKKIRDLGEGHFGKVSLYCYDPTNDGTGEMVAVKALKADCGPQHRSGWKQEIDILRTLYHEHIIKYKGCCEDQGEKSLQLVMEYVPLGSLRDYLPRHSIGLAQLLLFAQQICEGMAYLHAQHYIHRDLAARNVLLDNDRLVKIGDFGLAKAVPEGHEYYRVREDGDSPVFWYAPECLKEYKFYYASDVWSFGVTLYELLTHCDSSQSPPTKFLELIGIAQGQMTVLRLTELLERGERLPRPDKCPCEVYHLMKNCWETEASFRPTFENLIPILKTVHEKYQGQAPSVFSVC
Chain of TNK1 (human) (Q13470 whole entry, looked up): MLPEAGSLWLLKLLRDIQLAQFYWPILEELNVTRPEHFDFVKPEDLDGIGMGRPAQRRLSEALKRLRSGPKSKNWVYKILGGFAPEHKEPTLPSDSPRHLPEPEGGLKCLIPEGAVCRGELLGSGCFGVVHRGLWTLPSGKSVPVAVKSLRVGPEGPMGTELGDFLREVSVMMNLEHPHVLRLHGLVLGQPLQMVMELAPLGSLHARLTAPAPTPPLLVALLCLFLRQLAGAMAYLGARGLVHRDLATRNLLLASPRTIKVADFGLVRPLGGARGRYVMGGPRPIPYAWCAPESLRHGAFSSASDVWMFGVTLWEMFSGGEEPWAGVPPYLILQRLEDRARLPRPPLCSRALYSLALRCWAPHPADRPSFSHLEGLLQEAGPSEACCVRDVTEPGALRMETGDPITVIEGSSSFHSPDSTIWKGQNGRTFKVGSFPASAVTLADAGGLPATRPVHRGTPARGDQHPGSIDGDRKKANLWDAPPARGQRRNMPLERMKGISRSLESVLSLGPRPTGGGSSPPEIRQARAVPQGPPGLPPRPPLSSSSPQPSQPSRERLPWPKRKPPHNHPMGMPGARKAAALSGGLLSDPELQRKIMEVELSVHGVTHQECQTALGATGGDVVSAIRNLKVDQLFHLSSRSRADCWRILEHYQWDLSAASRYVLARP

## Cn1cc(C2=C(c3ccc(Cl)cc3Cl)C(=O)NC2=O)c2ccccc21
ACVRL1 (human)
  kinase still bound, per cent of control: 100%
ADCK3 (human)
  kinase still bound, per cent of control: 100%
AURKB (human)
  kinase still bound, per cent of control: 96%
BMPR1B (human)
  kinase still bound, per cent of control: 86%
BMX (human)
  kinase still bound, per cent of control: 78%
CAMK1D (human)
  kinase still bound, per cent of control: 76%
CDC2L2 (human)
  kinase still bound, per cent of control: 100%
CDK11B (human)
  kinase still bound, per cent of control: 100%
EIF2AK2 (human)
  kinase still bound, per cent of control: 81%
EPHA6 (human)
  kinase still bound, per cent of control: 100%
FES (human)
  kinase still bound, per cent of control: 100%
[1]
  kinase still bound, per cent of control: 62%
HIPK4 (human)
  kinase still bound, per cent of control: 14%
KDR (human)
  kinase still bound, per cent of control: 100%
KIT (human)
  kinase still bound, per cent of control: 79%
LIMK1 (human)
  kinase still bound, per cent of control: 93%
MAP2K1 (human)
  kinase still bound, per cent of control: 100%
MAP3K1 (human)
  kinase still bound, per cent of control: 100%
MAP3K12 (human)
  kinase still bound, per cent of control: 90%
MAP3K5 (human)
  kinase still bound, per cent of control: 100%
MAP3K9 (human)
  kinase still bound, per cent of control: 89%
MAP4K1 (human)
  kinase still bound, per cent of control: 62%
MAP4K3 (human)
  kinase still bound, per cent of control: 70%
MAPK15 (human)
  kinase still bound, per cent of control: 1.7%
MAPKAPK2 (human)
  kinase still bound, per cent of control: 100%
NEK9 (human)
  kinase still bound, per cent of control: 100%
[2]
  kinase still bound, per cent of control: 86%
PRKCH (human)
  kinase still bound, per cent of control: 79%
PRKD1 (human)
  kinase still bound, per cent of control: 100%
PRKD2 (human)
  kinase still bound, per cent of control: 99%
PTK2B (human)
  kinase still bound, per cent of control: 94%
RIOK2 (human)
  kinase still bound, per cent of control: 95%
ROCK2 (human)
  kinase still bound, per cent of control: 100%
RPS6KA2 KD1 (human)
  kinase still bound, per cent of control: 73%
STK25 (human)
  kinase still bound, per cent of control: 76%
STK4 (human)
  kinase still bound, per cent of control: 62%
TAOK3 (human)
  kinase still bound, per cent of control: 92%
TNK1 (human)
  kinase still bound, per cent of control: 88%
TNNI3K (human)
  kinase still bound, per cent of control: 80%
[3]
  kinase still bound, per cent of control: 32%
TYRO3 (human)
  kinase still bound, per cent of control: 100%
